Data as given in US20130123364A1 (priority 2011, published 2013).
“Also recorded” adds a separate entry of the source.

Test system: lung alveoli of mice damaged by toxic tobacco smoke exposure
Assay: Mouse model of intoxication by chronic inhalation of tobacco smoke, L-NIL in drinking water
Type: in vivo
Protocol: The regeneration and healing of the lung alveoli by L-NIL is shown in a mouse model of intoxication by chronic inhalation of tobacco smoke. In this model, mice are exposed to a stream of tobacco smoke in a concentration of 140 mg/m^3 for 6 h per day, 5 days a week over a period of up to 8 month.
The structural and functional pulmonary changes due to toxic smoke exposure were quantified with techniques suitable for this purpose. To assess the degree of alveolar damage, the mean linear intercept, alveolar septal wall thickness and the air space volume was quantified.
Parameters for the extent of vascular remodeling comprise the measurement of vascular wall thickness, staining for alpha-smooth muscle actin and von-Willebrand factor as well as the mean cross-sectional area of the vessels.
Functional measurements include the quantification of the lung function in spontaneously breathing as well as artificially ventilated mice with respect to airway resistance, lung compliance and volume flow. To evaluate functional changes of the vessels, lungs are investigated in an isolated perfused and ventilated experimental set-up, and pulmonary vascular resistance and reactivity are measured. The vascular reactivity is determined by quantifying the extent of vasoconstriction after addition of phenylephrine and can be deduced from dose/effect curves.
In a second experiment, L-NIL was administered orally via drinking water in a concentration of 600 μg/ml for a period for 3 months to treat mice with alveolar damage/destruction as a result of 8 months of toxic smoke exposure.

[1] = curative: oral L-NIL in drinking water 600 μg/ml for 3 months after 8 months of toxic smoke exposure

[H]/N=C(/C)NCCCC[C@H](N)C(=O)O [L-NIL, N^6-(1-iminoethyl)-L-lysine]
Proliferation, PCNA-positive cells in lung sections (FIGS. 5A to 5D) (L-NIL for 3 month after lung exposure to toxic smoke for 8 months): induction of proliferation | Elastic fibers network, elastin-stained lungs (FIGS. 3A to 3D) (L-NIL treatment after destruction by toxic tobacco smoke exposure): regeneration of the elastic fibers network | Total number of alveoli assessed by quantitative stereology (FIG. 2) (L-NIL treatment after toxic tobacco smoke exposure): regeneration of alveoli | Lung function [1]: lung function improvement | Regeneration of alveolar lung structure [1]: regeneration of the damaged or destroyed lung alveoli; also recorded: complete regeneration of the alveolar lung structure | Protection against alveolar damage/destruction (alveolar morphometry and lung functional measurements) (preventive: oral L-NIL in drinking water 600 μg/ml in parallel to smoke exposure over 8 months): complete protection against alveolar damage/destruction
